Measurements as given in patent US20040044405A1, “Vascular stent or graft coated or impregnated with protein tyrosine kinase inhibitors and method of using same” (priority 2001, published 2004).

Assays:
[1] = system: PKC; details: cited from earlier work
[2] = system: human coronary artery vascular smooth muscle cells; experiment: Migration of human coronary artery vascular smooth muscle cells through porous membrane in response to PDGF; format: cell-based; details: PDGF-ββ 20 ng/ml, 24 hrs, normalized to control membranes, FIG. 5
Method: Migration was assayed by counting cells that migrated through a porous membrane (20 μm diameter pores) in 24 hours in response to stimulation with platelet-derived growth factor (PDGF-pp).
The initial seed density was 4000 cells per filter (0.3 cm^2) in test media with 1% BSA and 20 ng/ml PDGF-ββ. The cells were then incubated in a humidified environment at 37° C., 5% CO2 for 24 hrs. The cells on the top side of the filter were then scraped away. The cells on bottom side of the filters were then fixed with ice-cold methanol for 10 min. The filters were rinsed with PBS and then stained with HarrisAE Hematoxylin stain for 5 min. and again rinsed with PBS.
The cells were then counted manually under high-power magnification (400×) in quadruplicate.

[3] = system: Porcine coronary VSMCs; experiment: Porcine coronary VSMC proliferation, BrdU incorporation ELISA after PDGF stimulation; format: cell-based; details: PDGF 20 ng/mL, STI-571, FIG. 1
Method: BrdU was added to the wells for the last 5 hours of the stimulation period.

[4] = system: Porcine aortic vascular endothelial cells; experiment: Porcine aortic vascular endothelial cell proliferation, BrdU incorporation ELISA after VEGF stimulation; format: cell-based; details: VEGF 20 ng/mL for 24 hours, STI-571, FIG. 2
Method: Porcine aortic vascular endothelial cells were grown to subconfluence in 96-well plates with DME media containing 10% FBS at 37° C. for 3 to 5 days. […] BrdU was added to the wells for the last 5 hours of the stimulation period. The cells were subsequently dried for 24 hours at 60° C., fixed and denatured, and BrdU incorporation determined using the Roche ELISA described in Example 1.

[5] = system: human coronary artery vascular smooth muscle cells; experiment: DNA synthesis in human coronary artery vascular smooth muscle cells, BrdU assay; format: cell-based; details: 10% FBS for 48 hours, FIG. 4

Row | SMILES | inhibitory activity / specificity towards PKC [1] | migration of human coronary vascular smooth muscle cells [2] | proliferation of VSMCs (BrdU incorporation) [3] | proliferation of aortic vascular endothelial cells (BrdU incorporation) [4] | DNA synthesis in human coronary artery vascular smooth muscle cells (BrdU incorporation) [5]
1 | O=C1NC(=O)c2cc(Nc3ccccc3)c(Nc3ccccc3)cc21 [CGP5211] | some inhibitory activity |  |  |  | 
2 | O=C1NC(=O)c2cc(Nc3ccc(F)cc3)c(Nc3ccc(F)cc3)cc21 [CGP53353] | lower specificity towards PKC isozymes |  |  |  | 
3 | Cc1ccc(NC(=O)c2ccc(CN3CCN(C)CC3)cc2)cc1Nc1nccc(-c2cccnc2)n1 [STI-571] |  | inhibits the migration of human coronary vascular smooth muscle cells in a dose-dependent fashion | inhibited the proliferation of VSMCs in a dose-dependent fashion | very minimal inhibitory effect | inhibits DNA synthesis
